From patent publication US20240382629A1, “HETEROBIVALENT AND HOMOBIVALENT AGENTS TARGETING FIBROBLAST ACTIVATION PROTEIN ALPHA AND/OR PROSTATE-SPECIFIC MEMBRANE ANTIGEN” (The Johns Hopkins University, priority 2021, published 2024)

System: U87 tumor
Assay: Biodistribution ([^18F]JHU1221823), carrier / specific activity study
Format: in vivo, mouse
Source text: Biodistribution of Representative Compounds

[1] = mean (one mouse), NOD/SCID, U87 tumor, Carrier 700, 60 min post injection
[2] = mean, + 0.05 nmole carrier, 60 min post injection
[3] = mean, + 0.1 nmole carrier, 60 min post injection
[4] = mean, + 0.25 nmole carrier, 60 min post injection
[5] = mean, NOD/SCID, U87 tumor, Carrier 350 (350 mCi/μmol), 60 min post injection
[6] = mean, Nude mice, U87 tumor, Baseline (~5000 mCi/μmol), 60 min post injection
[7] = mean, Nude mice, U87 tumor, Carrier 350 (350 mCi/μmol), 60 min post injection
[8] = mean, Nude mice, U87 tumor, Carrier 700, 60 min post injection
[9] = mean, U87 tumor, Baseline, second block (stands before <NOD/SCID> heading), 60 min post injection

N#C[C@@H]1CCCN1C(=O)CNC(=O)c1ccnc2ccc(OCCCNC(=O)CCOCCOCCOCCOCCNC(=O)[C@H](CCCCNC(=O)c3ccc([18F])nc3)NC(=O)CN3CCN(CC(=O)O)CCN(CC(=O)O)CCN(CC(=O)O)CC3)cc12 [[^18F]JHU1221823]
Bladder % ID/g [1]: 8.20 % ID/g | Blood % ID/g [1]: 5.82 % ID/g | Brain % ID/g [1]: 0.16 % ID/g | Fat % ID/g [1]: 0.90 % ID/g | Femur % ID/g [1]: 2.41 % ID/g | Heart % ID/g [1]: 3.48 % ID/g | Kidney % ID/g [1]: 2.45 % ID/g | Large intestine % ID/g [1]: 2.26 % ID/g | Liver % ID/g [1]: 2.36 % ID/g | Lung % ID/g [1]: 3.56 % ID/g | Muscle % ID/g [1]: 1.99 % ID/g | Pancreas % ID/g [1]: 13.03 % ID/g | Salivary gland % ID/g [1]: 11.31 % ID/g | Small intestine % ID/g [1]: 3.48 % ID/g | Spleen % ID/g [1]: 1.46 % ID/g | Stomach % ID/g [1]: 1.64 % ID/g | Tumor % ID/g [1]: 7.79 % ID/g | Bladder % ID/g (mean, + 0.01 nmole carrier): 2.00 % ID/g | Blood % ID/g (mean, + 0.01 nmole carrier): 11.29 % ID/g | Brain % ID/g (mean, + 0.01 nmole carrier): 0.30 % ID/g | Fat % ID/g (mean, + 0.01 nmole carrier): 0.34 % ID/g | Femur % ID/g (mean, + 0.01 nmole carrier): 3.53 % ID/g | Heart % ID/g (mean, + 0.01 nmole carrier): 4.62 % ID/g | Kidney % ID/g (mean, + 0.01 nmole carrier): 2.96 % ID/g | Large intestine % ID/g (mean, + 0.01 nmole carrier): 1.62 % ID/g | Liver % ID/g (mean, + 0.01 nmole carrier): 3.09 % ID/g | Lung % ID/g (mean, + 0.01 nmole carrier): 6.15 % ID/g | Muscle % ID/g (mean, + 0.01 nmole carrier): 1.88 % ID/g | Pancreas % ID/g (mean, + 0.01 nmole carrier): 4.07 % ID/g | Salivary gland % ID/g (mean, + 0.01 nmole carrier): 7.47 % ID/g | Small intestine % ID/g (mean, + 0.01 nmole carrier): 2.20 % ID/g | Spleen % ID/g (mean, + 0.01 nmole carrier): 2.01 % ID/g | Stomach % ID/g (mean, + 0.01 nmole carrier): 1.49 % ID/g | Tumor % ID/g (mean, + 0.01 nmole carrier): 2.37 % ID/g | Bladder % ID/g [2]: 4.29 % ID/g | Blood % ID/g [2]: 7.55 % ID/g | Brain % ID/g [2]: 0.21 % ID/g | Fat % ID/g [2]: 0.78 % ID/g | Femur % ID/g [2]: 3.25 % ID/g | Heart % ID/g [2]: 3.03 % ID/g | Kidney % ID/g [2]: 2.29 % ID/g | Large intestine % ID/g [2]: 1.53 % ID/g | Liver % ID/g [2]: 2.13 % ID/g | Lung % ID/g [2]: 4.10 % ID/g | Muscle % ID/g [2]: 1.83 % ID/g | Pancreas % ID/g [2]: 5.35 % ID/g | Salivary gland % ID/g [2]: 10.93 % ID/g | Small intestine % ID/g [2]: 1.82 % ID/g | Spleen % ID/g [2]: 1.50 % ID/g | Stomach % ID/g [2]: 1.27 % ID/g | Tumor % ID/g [2]: 3.42 % ID/g | Bladder % ID/g [3]: 1.75 % ID/g | Blood % ID/g [3]: 4.10 % ID/g | Brain % ID/g [3]: 0.12 % ID/g | Fat % ID/g [3]: 1.65 % ID/g | Femur % ID/g [3]: 3.72 % ID/g | Heart % ID/g [3]: 1.84 % ID/g | Kidney % ID/g [3]: 2.01 % ID/g | Large intestine % ID/g [3]: 2.35 % ID/g | Liver % ID/g [3]: 1.16 % ID/g | Lung % ID/g [3]: 2.57 % ID/g | Muscle % ID/g [3]: 1.97 % ID/g | Pancreas % ID/g [3]: 4.67 % ID/g | Salivary gland % ID/g [3]: 8.31 % ID/g | Small intestine % ID/g [3]: 1.64 % ID/g | Spleen % ID/g [3]: 0.96 % ID/g | Stomach % ID/g [3]: 1.00 % ID/g | Tumor % ID/g [3]: 5.08 % ID/g | Bladder % ID/g [4]: 2.51 % ID/g | Blood % ID/g [4]: 1.90 % ID/g | Brain % ID/g [4]: 0.08 % ID/g | Fat % ID/g [4]: 0.51 % ID/g | Femur % ID/g [4]: 4.26 % ID/g | Heart % ID/g [4]: 0.91 % ID/g | Kidney % ID/g [4]: 1.92 % ID/g | Large intestine % ID/g [4]: 0.65 % ID/g | Liver % ID/g [4]: 0.75 % ID/g | Lung % ID/g [4]: 1.37 % ID/g | Muscle % ID/g [4]: 1.25 % ID/g | Pancreas % ID/g [4]: 1.77 % ID/g | Salivary gland % ID/g [4]: 3.31 % ID/g | Small intestine % ID/g [4]: 0.91 % ID/g | Spleen % ID/g [4]: 0.46 % ID/g | Stomach % ID/g [4]: 0.69 % ID/g | Tumor % ID/g [4]: 3.52 % ID/g | Bladder % ID/g [5]: 4.33 % ID/g | Blood % ID/g [5]: 4.14 % ID/g | Brain % ID/g [5]: 0.09 % ID/g | Fat % ID/g [5]: 0.85 % ID/g | Femur % ID/g [5]: 3.43 % ID/g | Heart % ID/g [5]: 2.14 % ID/g | Kidney % ID/g [5]: 2.13 % ID/g | Large intestine % ID/g [5]: 2.08 % ID/g | Liver % ID/g [5]: 1.76 % ID/g | Lung % ID/g [5]: 2.74 % ID/g | Muscle % ID/g [5]: 2.03 % ID/g | Pancreas % ID/g [5]: 10.18 % ID/g | Salivary gland % ID/g [5]: 9.49 % ID/g | Small intestine % ID/g [5]: 2.29 % ID/g | Spleen % ID/g [5]: 1.80 % ID/g | Stomach % ID/g [5]: 1.47 % ID/g | Tumor % ID/g [5]: 8.64 % ID/g | Bladder % ID/g [6]: 2.38 % ID/g | Blood % ID/g [6]: 11.46 % ID/g | Brain % ID/g [6]: 0.23 % ID/g | Fat % ID/g [6]: 0.99 % ID/g | Femur % ID/g [6]: 2.41 % ID/g | Heart % ID/g [6]: 5.54 % ID/g | Kidney % ID/g [6]: 2.91 % ID/g | Large intestine % ID/g [6]: 1.40 % ID/g | Liver % ID/g [6]: 3.31 % ID/g | Lung % ID/g [6]: 6.97 % ID/g | Muscle % ID/g [6]: 1.75 % ID/g | Pancreas % ID/g [6]: 3.36 % ID/g | Salivary gland % ID/g [6]: 6.91 % ID/g | Small intestine % ID/g [6]: 2.70 % ID/g | Spleen % ID/g [6]: 2.06 % ID/g | Stomach % ID/g [6]: 1.23 % ID/g | Tumor % ID/g [6]: 2.33 % ID/g | Bladder % ID/g [7]: 1.73 % ID/g | Blood % ID/g [7]: 5.84 % ID/g | Brain % ID/g [7]: 0.14 % ID/g | Fat % ID/g [7]: 0.89 % ID/g | Femur % ID/g [7]: 4.15 % ID/g | Heart % ID/g [7]: 2.50 % ID/g | Kidney % ID/g [7]: 2.07 % ID/g | Large intestine % ID/g [7]: 1.76 % ID/g | Liver % ID/g [7]: 1.90 % ID/g | Lung % ID/g [7]: 3.45 % ID/g | Muscle % ID/g [7]: 2.41 % ID/g | Pancreas % ID/g [7]: 6.29 % ID/g | Salivary gland % ID/g [7]: 11.15 % ID/g | Small intestine % ID/g [7]: 2.42 % ID/g | Spleen % ID/g [7]: 1.29 % ID/g | Stomach % ID/g [7]: 1.56 % ID/g | Tumor % ID/g [7]: 2.27 % ID/g | Bladder % ID/g [8]: 2.23 % ID/g | Blood % ID/g [8]: 9.94 % ID/g | Brain % ID/g [8]: 0.20 % ID/g | Fat % ID/g [8]: 0.49 % ID/g | Femur % ID/g [8]: 3.06 % ID/g | Heart % ID/g [8]: 4.65 % ID/g | Kidney % ID/g [8]: 2.53 % ID/g | Large intestine % ID/g [8]: 1.62 % ID/g | Liver % ID/g [8]: 2.81 % ID/g | Lung % ID/g [8]: 5.57 % ID/g | Muscle % ID/g [8]: 2.07 % ID/g | Pancreas % ID/g [8]: 3.91 % ID/g | Salivary gland % ID/g [8]: 8.13 % ID/g | Small intestine % ID/g [8]: 2.18 % ID/g | Spleen % ID/g [8]: 1.72 % ID/g | Stomach % ID/g [8]: 1.37 % ID/g | Tumor % ID/g [8]: 2.01 % ID/g | Bladder % ID/g [9]: 6.92 % ID/g | Blood % ID/g [9]: 10.99 % ID/g | Brain % ID/g [9]: 0.22 % ID/g | Fat % ID/g [9]: 0.62 % ID/g | Femur % ID/g [9]: 2.37 % ID/g | Heart % ID/g [9]: 6.95 % ID/g | Kidney % ID/g [9]: 3.41 % ID/g | Large intestine % ID/g [9]: 2.18 % ID/g | Liver % ID/g [9]: 4.38 % ID/g | Lung % ID/g [9]: 7.03 % ID/g | Muscle % ID/g [9]: 1.64 % ID/g | Pancreas % ID/g [9]: 8.17 % ID/g | Salivary gland % ID/g [9]: 11.89 % ID/g | Small intestine % ID/g [9]: 3.66 % ID/g | Spleen % ID/g [9]: 2.16 % ID/g | Stomach % ID/g [9]: 1.81 % ID/g | Tumor % ID/g [9]: 3.08 % ID/g | Bladder % ID/g (mean, carrier not given): 4.53 % ID/g | Blood % ID/g (mean, carrier not given): 9.54 % ID/g | Brain % ID/g (mean, carrier not given): 0.22 % ID/g | Fat % ID/g (mean, carrier not given): 1.07 % ID/g | Femur % ID/g (mean, carrier not given): 2.83 % ID/g | Heart % ID/g (mean, carrier not given): 4.65 % ID/g | Kidney % ID/g (mean, carrier not given): 2.73 % ID/g | Large intestine % ID/g (mean, carrier not given): 1.49 % ID/g | Liver % ID/g (mean, carrier not given): 2.99 % ID/g | Lung % ID/g (mean, carrier not given): 5.72 % ID/g | Muscle % ID/g (mean, carrier not given): 1.78 % ID/g | Pancreas % ID/g (mean, carrier not given): 2.14 % ID/g | Salivary gland % ID/g (mean, carrier not given): 6.93 % ID/g | Small intestine % ID/g (mean, carrier not given): 3.02 % ID/g | Spleen % ID/g (mean, carrier not given): 2.15 % ID/g | Stomach % ID/g (mean, carrier not given): 1.14 % ID/g | Tumor % ID/g (mean, carrier not given): 5.71 % ID/g
